Counter-ions that a name gives are not always drawn.
Legend:
[1] = target: T1, 5-HT4 receptor (Rattus norvegicus, UniProt Q62758); experiment: Agonisting Action to 5-HT4 Receptor: relaxation of carbachol-contracted muscular sample of mucous membrane in rat esophagus; settings: negative logarithm of concentration causing 50% relaxation
T1 construct: muscular sample of mucous membrane in esophgus exentrated from a rat; from tissue; host or cells: rat oesophagus, muscularis mucosae (isolated tissue contracted with carbachol)
Text: Pharmacol.", Vol. 343, page 439 (1991)].
Namely, a relaxation of the Test and Control compounds in various concentration showing to carbachol contradiction of a muscular sample of mucous membrane in esophgus exentrated from a rat was checked to calculate a concentration causing 50% relaxation and compared with its negative logarithm (P EC50).

[2] = tested on: dopamine D2 receptor; settings: rat, in vivo, po, 100 mg/kg
Text: The compounds (salts) obtained by Examples as well as known compound (Metoclopramide) were selected as Test and Control Compounds, respectively. The compound was orally administered to rats to observe for 2 days general symptoms including catalepsy and blepharoptosis due to antagonistic action of the compound to dopamine D2 receptor.

T1 sequence (Q62758 whole entry): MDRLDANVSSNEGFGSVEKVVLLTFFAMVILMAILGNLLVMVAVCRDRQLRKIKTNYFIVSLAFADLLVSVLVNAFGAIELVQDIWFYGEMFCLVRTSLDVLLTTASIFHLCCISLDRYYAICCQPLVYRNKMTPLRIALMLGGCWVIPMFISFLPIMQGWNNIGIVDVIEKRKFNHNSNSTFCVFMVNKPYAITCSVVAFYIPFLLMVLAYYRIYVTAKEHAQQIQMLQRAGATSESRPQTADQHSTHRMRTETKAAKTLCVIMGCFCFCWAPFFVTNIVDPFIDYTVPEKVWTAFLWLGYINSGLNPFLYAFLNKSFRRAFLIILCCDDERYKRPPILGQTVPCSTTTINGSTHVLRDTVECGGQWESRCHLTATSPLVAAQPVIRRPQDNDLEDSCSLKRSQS

| EC50 [1] | SMILES | other results |
| --- | --- | --- |
| 5.01 µM | COc1c(C(=O)NCCC23CCCN2CCC3)cc(Cl)c2c1CCN2 [Example 1, N-[2-(1-Azabicyclo[3.3.01]octan-5-yl)ethyl]-7-chloro-2,3-dihydro-4-methoxyindole-5-carboxamide. 1/2 fumarate] | – |
| 5.01 µM | CCOc1c(C(=O)NCCC23CCCN2CCC3)cc(Cl)c2c1CCN2 [Example 2, N-[2-(1-Azabicyclo[3.3.0]octan-5-yl)ethyl]-7-chloro-2,3-dihydro-4-ethoxyindole-5-carboxamide. 1/2 fumarate] | – |
| 2 µM | Cc1oc2c(C(=O)NCCC34CCCN3CCC4)ccc(N)c2c1Cl [Example 3, 4-Amino-N-[2-(1-Azabicyclo[3.3.0]octan-5-yl)ethyl]-3-chloro-2-methylbenzo[b]furan-7-carboxamide.1/2 fumarate] | – |
| 0.0398 µM | Cc1cc2c(N)c(Cl)cc(C(=O)NCCC34CCCN3CCC4)c2o1 [Example 4, 4-Amino-N-[2-(1-azabicyclo[3.3.0]octan-5-yl)ethyl]-5-chloro-2-methylbenzo[b]furan-7-carboxamide. 1/2 fumarate] | – |
| 0.794 µM | Cc1oc2c(C(=O)NCCC34CCCN3CCC4)cc(Cl)c(N)c2c1Cl [Example 5, 4-Amino-N-[2-(1-azabicyclo[3.3.0]octan-5yl)ethyl]-3,5-dichloro-2-methylbenzo[b]furan-7-carboxamide. 1/2 fumarate] | – |
| 0.501 µM | CCCc1c(N)c(Cl)cc(C(=O)NCCC23CCCN2CCC3)c1OC [Example 6, 4-Amino-N-[2-(1-azabicyclo[3.3.0]octan-5-yl)ethyl]-5-chloro-2-methoxy-3-propylbenzamide. 1/2 fumarate] | – |
| 0.398 µM | CCCc1c(N)c(Cl)cc(C(=O)NCCC23CCCN2CCC3)c1OCC [Example 7, 4-Amino-N-[2-(1-azabicyclo[3.3.0]octan-5-yl)ethyl]-5-chloro-2-ethoxy-3-propylbenzamide. 1/2 fumarate] | – |
| – | C=CCc1c(N)c(Cl)cc(C(=O)NCCC23CCCN2CCC3)c1OC [Example 8, 4-Amino-N-[2-(1-azabicyclo[3.3.0]octan-5-yl)ethyl]-5-chloro-2-methoxy-3-(2-propenyl)benzamide. 1/2 fumarate] | pEC50 [1]: 6.3 |
| – | C=CCc1c(N)c(Cl)cc(C(=O)NCCC23CCCN2CCC3)c1OCC [Example 9, 4-Amino-N-[2-(1-azabicyclo[3.3.0]octan-5-yl)ethyl]-5-chloro-2-ethoxy-3-(2-propenyl)benzamide. 1/2 fumarate] | pEC50 [1]: 6.3 |
| – | CCN(CC)CCNC(=O)c1cc(Cl)c(N)cc1OC [Metoclopramide, 4-amino-5-chloro-N-[(2-diethylamino)ethyl]-2-methoxybenzamide] | influence to central nerve system due to anti-dopamine action [2]: somewhat remarkable influence was recognized |

Source: patent US5539125A, “1-azabicyclo[3.3.0]octan derivative, salt thereof, process for the preparation of same and use thereof as hypermotility agents” (Sanwa Kagaku Kenkyusho Co., Ltd., priority 1994, dated 1996)
